The molecules below were run against T1, rat B1R (Rattus norvegicus, UniProt P97583) (assay: FLIPR Ca2+ functional study on bradykinin receptor 1 (rB1R CHO K1 cells)). Details: % inhibition rat B1R at 10 μM, 10 µM.
T1 construct: expressed in transfected cells; host or cells: CHO K1 cells
T1 sequence (P97583 1-337): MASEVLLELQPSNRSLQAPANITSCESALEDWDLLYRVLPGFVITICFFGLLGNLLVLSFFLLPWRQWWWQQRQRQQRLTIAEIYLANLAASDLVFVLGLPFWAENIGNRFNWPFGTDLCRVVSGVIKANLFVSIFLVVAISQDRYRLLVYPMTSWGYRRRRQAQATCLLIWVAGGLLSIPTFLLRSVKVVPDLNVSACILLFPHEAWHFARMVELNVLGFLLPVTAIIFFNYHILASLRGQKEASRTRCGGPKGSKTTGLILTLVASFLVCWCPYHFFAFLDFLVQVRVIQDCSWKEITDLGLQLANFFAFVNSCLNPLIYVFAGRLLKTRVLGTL
Format: cell-based
In short: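 Antagonism was calculated as % of maximal inhibition of the Ca2+ rise triggered by agonist at EC80 (Lys-Des-Arg9-bradykinin for hB1R, Des-Arg9-bradykinin for rB1R), added 10-20 min after test compound (10 μM or serial dilutions for IC50) to Fluo-4-loaded transfected CHO K1 cells on FLIPR. Duplicates or triplicates, ≥2 independent runs.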

| % inh. (rat B1R) 10 μM [%] | SMILES |
| --- | --- |
| 79 | COc1cc(C)c(S(=O)(=O)N(C)CCOc2nccc(N(C)CCN3CCC(c4ccccc4)(N(C)C)CC3)n2)c(C)c1 [G_CC-098, N-[2-[4-[2-(4-dimethylamino-4-phenyl-piperidin-1-yl)-ethyl-methyl-amino]-pyrimidin-2-yl]oxy-ethyl]-4-methoxy-N,2,6-trimethyl-benzenesulfonic acid amide] |

Same assay, conditions: CHO-K1, % inhibition rat B1R at 10 μM, read-out: % inh. (rat B1R) 10 μM

| SMILES | inhibition at 10 µM [%] |
| --- | --- |
| COc1cc(C)c(S(=O)(=O)N2CCC[C@@H]2COc2nccc(N3CCCC3Cc3ccccn3)n2)c(C)c1 (stereo partly drawn) [G_CC-084, 2-[[(2R)-1-[(4-methoxy-2,6-dimethyl-phenyl)sulfonyl]-pyrrolidin-2-yl]-methoxy]-4-[2-(pyridin-2-yl-methyl)-pyrrolidin-1-yl]-pyrimidine] | 83 |
| COc1cc(C)c(S(=O)(=O)N2CCC[C@H]2COc2nccc(N3CCC(c4nc(-c5ccncc5)no4)CC3)n2)c(C)c1 [G_CC-085, 5-[1-[2-[[(2S)-1-[(4-methoxy-2,6-dimethyl-phenyl)sulfonyl]-pyrrolidin-2-yl]-methoxy]-pyrimidin-4-yl]-piperidin-4-yl]-3-pyridin-4-yl-[1,2,4]oxadiazole] | 101 |
| COc1cc(C)c(S(=O)(=O)N2CCC[C@H]2COc2nccc(N3CCC(OCCN4CCCC4)(c4cccc(F)c4)CC3)n2)c(C)c1 [G_CC-086, 4-[4-(3-fluorophenyl)-4-(2-pyrrolidin-1-yl-ethoxy)-piperidin-1-yl]-2-[[(2S)-1-[(4-methoxy-2,6-dimethyl-phenyl)sulfonyl]-pyrrolidin-2-yl]-methoxy]-pyrimidine] | 105 |
| CCCCC1(N(C)C)CCN(c2ccnc(OC[C@@H]3CCCN3S(=O)(=O)c3c(C)cc(OC)cc3C)n2)CC1 [G_CC-087, [4-butyl-1-[2-[[(2S)-1-[(4-methoxy-2,6-dimethyl-phenyl)sulfonyl]-pyrrolidin-2-yl]-methoxy]-pyrimidin-4-yl]-piperidin-4-yl]-dimethyl-amine] | 101 |
| CCCCC1(N(C)C)CCN(c2ccnc(OCCN(C)S(=O)(=O)c3c(C)cc(OC)cc3C)n2)CC1 [G_CC-089, N-[2-[4-(4-butyl-4-dimethylamino-piperidin-1-yl)-pyrimidin-2-yl]oxy-ethyl]-4-methoxy-N,2,6-trimethyl-benzenesulfonic acid amide] | 93 |
| COc1cc(C)c(S(=O)(=O)N2c3ccccc3C[C@H]2COc2nccc(N3CCC(Oc4cnccn4)CC3)n2)c(C)c1 [G_CC-092, (2S)-1-[(4-methoxy-2,6-dimethyl-phenyl)sulfonyl]-2-[[4-(4-pyrazin-2-yloxy-piperidin-1-yl)-pyrimidin-2-yl]oxy-methyl]-2,3-dihydro-1H-indole] | 85 |
| CCCCC1(N(C)C)CCN(c2ccnc(OC[C@@H]3Cc4ccccc4N3S(=O)(=O)c3c(C)cc(OC)cc3C)n2)CC1 [G_CC-093, [4-butyl-1-[2-[[(2S)-1-[(4-methoxy-2,6-dimethyl-phenyl)sulfonyl]-2,3-dihydro-1H-indol-2-yl]-methoxy]-pyrimidin-4-yl]-piperidin-4-yl]-dimethyl-amine] | 91 |
| COc1cc(C)c(S(=O)(=O)N(C)CCOc2nccc(N(C)CCCN3CCC(c4ccccc4)(N(C)C)CC3)n2)c(C)c1 [G_CC-100, N-[2-[4-[3-(4-dimethylamino-4-phenyl-piperidin-1-yl)-propyl-methyl-amino]-pyrimidin-2-yl]oxy-ethyl]-4-methoxy-N,2,6-trimethyl-benzenesulfonic acid amide] | 89 |
| COc1cc(C)c(S(=O)(=O)N2CCCCC2COc2nccc(N3CCC(c4nc(-c5ccncc5)no4)CC3)n2)c(C)c1 (stereo not drawn) [G_CC-103, 5-[1-[2-[[1-[(4-methoxy-2,6-dimethyl-phenyl)sulfonyl]-piperidin-2-yl]-methoxy]-pyrimidin-4-yl]-piperidin-4-yl]-3-pyridin-4-yl-[1,2,4]oxadiazole] | 93 |
| COc1cc(C)c(S(=O)(=O)N2CCCCC2COc2nccc(N3CCC(c4cccc(F)c4)(N4CCN(C)CC4)CC3)n2)c(C)c1 (stereo not drawn) [G_CC-104, 4-[4-(3-fluorophenyl)-4-(4-methyl-piperazin-1-yl)-piperidin-1-yl]-2-[[1-[(4-methoxy-2,6-dimethyl-phenyl)sulfonyl]-piperidin-2-yl]-methoxy]-pyrimidine] | 101 |
| COc1cc(C)c(S(=O)(=O)N2CCCCC2COc2nccc(N3[C@@H]4CC[C@H]3CC(Oc3cccnc3)C4)n2)c(C)c1 (stereo partly drawn) [G_CC-105, (1S,5R)-8-[2-[[1-[(4-methoxy-2,6-dimethyl-phenyl)sulfonyl]-piperidin-2-yl]-methoxy]-pyrimidin-4-yl]-3-pyridin-3-yloxy-8-azabicyclo[3.2.1]octane] | 101 |

Continued, values first:

| inhibition at 10 µM [%] | SMILES |
| --- | --- |
| 100 | COc1cc(C)c(S(=O)(=O)N2CCC[C@H]2COc2nccc(N(C)CCN3CCC(c4ccccc4)(N(C)C)CC3)n2)c(C)c1 [G_CC-088, 2-(4-dimethylamino-4-phenyl-piperidin-1-yl)-ethyl-[2-[[(2S)-1-[(4-methoxy-2,6-dimethyl-phenyl)sulfonyl]-pyrrolidin-2-yl]-methoxy]-pyrimidin-4-yl]-methyl-amine] |
| 101 | COc1cc(C)c(S(=O)(=O)N2CCC[C@H]2COc2nccc(N(C)CCN3CCC(c4ccccc4)(N4CCCC4)CC3)n2)c(C)c1 [G_CC-091, [2-[[(2S)-1-[(4-methoxy-2,6-dimethyl-phenyl)sulfonyl]-pyrrolidin-2-yl]-methoxy]-pyrimidin-4-yl]-methyl-[2-(4-phenyl-4-pyrrolidin-1-yl-piperidin-1-yl)-ethyl]-amine] |
| 102 | COc1cc(C)c(S(=O)(=O)N2c3ccccc3C[C@H]2COc2nccc(N(C)CCN3CCC(c4ccccc4)(N(C)C)CC3)n2)c(C)c1 [G_CC-094, 2-(4-dimethylamino-4-phenyl-piperidin-1-yl)-ethyl-[2-[[(2S)-1-[(4-methoxy-2,6-dimethyl-phenyl)sulfonyl]-2,3-dihydro-1H-indol-2-yl]-methoxy]-pyrimidin-4-yl]-methyl-amine] |
| 101 | COc1cc(C)c(S(=O)(=O)N2c3ccccc3C[C@H]2COc2nccc(N(C)CCN3CCC(c4ccccc4)(N4CCCC4)CC3)n2)c(C)c1 [G_CC-096, [2-[[(2S)-1-[(4-methoxy-2,6-dimethyl-phenyl)sulfonyl]-2,3-dihydro-1H-indol-2-yl]-methoxy]-pyrimidin-4-yl]-methyl-[2-(4-phenyl-4-pyrrolidin-1-yl-piperidin-1-yl)-ethyl]-amine] |
| 101 | CCCCC1(N(C)C)CCN(CCN(C)c2ccnc(OC[C@@H]3Cc4ccccc4N3S(=O)(=O)c3c(C)cc(OC)cc3C)n2)CC1 [G_CC-097, 2-(4-butyl-4-dimethylamino-piperidin-1-yl)-ethyl-[2-[[(2S)-1-[(4-methoxy-2,6-dimethyl-phenyl)sulfonyl]-2,3-dihydro-1H-indol-2-yl]-methoxy]-pyrimidin-4-yl]-methyl-amine] |
| 105 | COc1cc(C)c(S(=O)(=O)N2CCCCC2COc2nccc(N(C)CCCN3CCC(c4ccccc4)(N(C)C)CC3)n2)c(C)c1 (stereo not drawn) [G_CC-101, 3-(4-dimethylamino-4-phenyl-piperidin-1-yl)-propyl-[2-[[1-[(4-methoxy-2,6-dimethyl-phenyl)sulfonyl]-piperidin-2-yl]-methoxy]-pyrimidin-4-yl]-methyl-amine] |

Source: patent US8269000B2, “Substituted pyrimidine and triazine compounds” (Gruenenthal GmbH, priority 2008, dated 2012)
